Measured values from PMC7287882, “Dual miRNases for Triple Incision of miRNA Target: Design Concept and Catalytic Performance” (Molecules, 2020).

Assays:
miR-21 = assay: Gel-retardation assay, hybridization with miR-21; format: binding; settings: 37 °C, 45 min, mean of 3
Description: We carried out a comparative analysis of the hybridization properties of the developed DCs with the corresponding SCs, which were the products of the first stage of the DCs synthesis. As discussed above, each SC consisted of the corresponding oligonucleotide A, which was complementary to the 5′-region of the matching miRNA target, and the catalytic peptide [LRLRG]2, attached to the 5′-end of this oligonucleotide via a thiohexyl linker (linker 2). […] Indeed, the level of binding of DCs to their miRNA targets reached 96, 90, 75, 55% at equimolar concentration (1 μM), and 99, 96, 92 and 69% at 5-fold excess of DCs over miR-17, miR-18a, miR-21 and miR-155, respectively (Figure 2). […]
The reaction mixture (4 µL) containing 50 mM Tris-HCl, pH 7.0, 200 mM KCl and 1 mM EDTA, 100 cpm (Cherenkov’s counting) of [^32P]-miRNA, 1 μM unlabeled miRNA, a conjugate at a concentration ranging from 0.1 to 10 μM was incubated at 37 °C for 45 min and quenched by adding of a loading buffer (20% ficoll, 0.025% bromophenol blue, 0.025% xylene cyanol). […] Formation of the complex miRNA/conjugate was analyzed by electrophoresis in 15% native PAAG at 4 °C. The gels were analyzed using Molecular Imager FX. The extent of binding of conjugate to miRNA was determined as a ratio of radioactivity measured in the complex to the total radioactivity applied onto the gel lane.

miR-18a = assay: Ribonuclease activity assay, cleavage of miR-18a; format: biochemical; settings: miRNA 1 µM, DC 20 µM, 37 °C
Experimental: The ribonuclease activity of DCs was studied under two different buffer conditions: buffer (1) contained 50 mM Tris-HCl, pH 7.0, 200 mM KCl, 1 mM EDTA, which imitates intracellular conditions (e.g., pH and potassium ions concentration) and was used in a number of studies previously; and buffer (2) contained 20 mM Tris-HCl, pH 7.8, 40 mM KCl, 8 mM MgCl2, 1 mM DTT, 0.02 mg/mL BSA, which is recommended for in vitro reactions with RNase H (Figure 3 and Figure 4).
Figure 3 Kinetics of cleavage of 5′-[^32P]-labeled miR-17, miR-18a, miR-155, miR-21 and miR-21_1 by corresponding DCs in the buffer (1), containing 50 mM Tris-HCl, pH 7.0, 200 mM KCl and 1 mM EDTA. (a–e) Radioautographs of 18% denaturing PAAG showing the cleavage products of miR-17, miR-18a, miR-155, miR-21 and miR-21_1, respectively. miRNA (1 µM) and corresponding DC (20 µM) were incubated at 37 °C for 72 h. Lanes Im and T1—imidazole ladder and partial RNA digestion with RNase T1, respectively; control–miRNA was incubated in the absence of the conjugate. The incubation time (in hours) is show at the top. SS gap–single-stranded region of miRNA formed upon hybridization with DC; (f) Kinetics of miRNAs cleavage by DCs depending on the incubation time. Data are presented as mean ± s.e.
Figure 4 Kinetics of cleavage of 5′-[^32P]-labeled miR-17, miR-18a, miR-155, miR-21, and miR-21_1 by corresponding DCs in the buffer (2), containing 20 mM Tris-HCl, pH 7.8, 40 mM KCl, 8 mM MgCl2, 1 mM DTT, 0.02 mg/mL BSA. (a–e) Radioautographs of 18% denaturing PAAG showing the cleavage products of miR-17, miR-18a, miR-155, miR-21 and miR-21_1, respectively. miRNA (1 µM) and corresponding DC (20 µM) were incubated at 37 °C for 72 h. Lanes Im and T1–imidazole ladder and partial RNA digestion with RNase T1, respectively; control–miRNA was incubated in the absence of the conjugate. The incubation time (in hours) is shown at the top. SS gap–single-stranded region of miRNA formed upon hybridization with DC; (f) Kinetics of miRNAs cleavage by DCs. Data are presented as mean ± s.e.
The reaction mixture (10 µL) contained 800 cpm (Cherenkov’s counting) of [^32P]-miRNA, 1 μM unlabeled miRNA, one of the conjugates at a concentration 10 or 20 μM and one of the buffers: 50 mM Tris-HCl, pH 7.0, 200 mM KCl, 1 mM EDTA–buffer (1) or 20 mM Tris-HCl, pH 7.8, 40 mM KCl, 8 mM MgCl2, 1 mM DTT, 0.02 mg/mL BSA–buffer (2). The mixture was incubated at 37 °C for 0–72 h and quenched by precipitation of RNA with 2% LiClO4 in acetone (90 µL). RNA was collected by centrifugation and dissolved in loading buffer (8 M urea, 0.025% bromophenol blue, 0.025% xylene cyanol). RNA cleavage products were analyzed in 18% PAAG/8M urea using TBE (100 mM Tris-borate, pH 8.3, 2 mM EDTA) as running buffer. To identify cleavage sites, an imidazole and T1-ladders produced by partial RNA cleavage with 2 M imidazole buffer (pH 7.0) and with RNase T1 [68], respectively, were run in parallel. To obtain quantitative data, gels were dried and analyzed using Molecular Imager FX. The total extent of RNA cleavage and the extent of RNA cleavage at each individual site were determined by using Quantity One software v.4.1 (Bio-Rad, Hercules, CA, USA).

Substance | level of binding of DC to miRNA target (miR-21; 5-fold excess of DC over miRNA (1 µM), same buffer) [%] | level of binding of DC to miRNA target (miR-21; equimolar, DC 1 µM : miRNA 1 µM, 50 mM Tris-HCl pH 7.0, 200 mM KCl, 1 mM EDTA) [%] | Total Cleavage (miR-18a; buffer (1) 50 mM Tris-HCl pH 7.0, 200 mM KCl, 1 mM EDTA, 2 h) [%] | Total Cleavage (miR-18a; buffer (1) 50 mM Tris-HCl pH 7.0, 200 mM KCl, 1 mM EDTA, 6 h) [%] | Total Cleavage (miR-18a; buffer (1) 50 mM Tris-HCl pH 7.0, 200 mM KCl, 1 mM EDTA, 24 h) [%] | Total Cleavage (miR-18a; buffer (1) 50 mM Tris-HCl pH 7.0, 200 mM KCl, 1 mM EDTA, 48 h) [%] | Total Cleavage (miR-18a; buffer (1) 50 mM Tris-HCl pH 7.0, 200 mM KCl, 1 mM EDTA, 72 h) [%] | Total Cleavage (miR-18a; buffer (2) 20 mM Tris-HCl pH 7.8, 40 mM KCl, 8 mM MgCl2, 1 mM DTT, 0.02 mg/mL BSA, 2 h) | Total Cleavage (miR-18a; buffer (2) 20 mM Tris-HCl pH 7.8, 40 mM KCl, 8 mM MgCl2, 1 mM DTT, 0.02 mg/mL BSA, 6 h) [%] | Total Cleavage (miR-18a; buffer (2) 20 mM Tris-HCl pH 7.8, 40 mM KCl, 8 mM MgCl2, 1 mM DTT, 0.02 mg/mL BSA, 24 h) [%] | Total Cleavage (miR-18a; buffer (2) 20 mM Tris-HCl pH 7.8, 40 mM KCl, 8 mM MgCl2, 1 mM DTT, 0.02 mg/mL BSA, 48 h) [%] | Total Cleavage (miR-18a; buffer (2) 20 mM Tris-HCl pH 7.8, 40 mM KCl, 8 mM MgCl2, 1 mM DTT, 0.02 mg/mL BSA, 72 h) [%] | rise of Kobs in buffer (2) compared to Kobs in buffer (1) (miR-18a) [fold]
TCAACATC–linker 1–[GRLRL]2–linker 2–GATAAGCTA [miRNA-21-DC, Dual oligonucleotide-peptide conjugate targeted to miR-21: catalytic peptide [LRLRG]2 between two 2-aminoadenine-containing oligodeoxyribonucleotides] | 92 | 75 | – | – | – | – | – | – | – | – | – | – | –
TATCTGC–linker 1–[GRLRL]2–linker 2–ATGCACCTTA [miRNA-18a-DC, Dual oligonucleotide-peptide conjugate targeted to miR-18a: catalytic peptide [LRLRG]2 between two 2-aminoadenine-containing oligodeoxyribonucleotides] | – | – | 0 | 1 | 3 | 7 | 8 | 1,4% | 5 | 19 | 23 | 37 | 7
